Laboratory results: patent publication US8673894B2 (Hoffmann-La Roche Inc., priority 2010, dated 2014)
Counter-ions that a name gives are not always drawn.

Legend:
[1] = target: T1, endogenous cellular BACE2 (Rattus norvegicus, UniProt Q6IE75); test: Assay for BACE inhibition by measuring cellular TMEM27 cleavage; type: cell-based; details: INS-TMEM27 (INS1e-derived) cells, shed human TMEM27 in supernatant by ELISA
T1 construct: endogenous cellular BACE2 in the Ins1e rat cell line; endogenous in cells; host or cells: INS-TMEM27 (INS1e-derived rat insulinoma cell line with doxycycline-inducible full-length human TMEM27)
T1 sequence (Q6IE75 63-514): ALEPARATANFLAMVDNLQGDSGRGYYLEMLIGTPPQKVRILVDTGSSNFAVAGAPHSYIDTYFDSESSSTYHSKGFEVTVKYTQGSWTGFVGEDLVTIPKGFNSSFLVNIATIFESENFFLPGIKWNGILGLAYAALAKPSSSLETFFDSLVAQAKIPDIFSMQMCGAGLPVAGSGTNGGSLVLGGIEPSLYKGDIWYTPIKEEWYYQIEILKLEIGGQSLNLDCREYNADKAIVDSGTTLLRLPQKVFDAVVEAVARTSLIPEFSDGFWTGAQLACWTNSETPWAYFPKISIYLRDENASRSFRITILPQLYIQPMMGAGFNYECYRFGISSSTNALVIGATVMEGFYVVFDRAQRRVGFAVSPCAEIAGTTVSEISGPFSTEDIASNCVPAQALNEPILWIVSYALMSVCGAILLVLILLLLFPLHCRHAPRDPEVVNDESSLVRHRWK
Procedure, shortened: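 INS1e rat cells with doxycycline-inducible human TMEM27 get inhibitor 2 h before doxycycline (500 ng/ml final), then 46 h further at 37° C. Shed TMEM27 in the supernatant is measured by sandwich ELISA, and the EC50 comes from a curve fit of the ELISA signal.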

Aβ40 = test: Cellular Aβ-lowering assay; type: cell-based; details: HEK293 cells stably expressing human APP695, Aβ40 in supernatant by ELISA after 18-20 hrs; read-out: Cellular assay Abeta40 IC50
Procedure, shortened: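 HEK293 cells stably expressing human wild-type APP695 were treated with compound for 18-20 h at 37 °C in 0.8% v/v DMSO. Secreted Aβ40 in the supernatant was measured by sandwich ELISA (Aβ40 C-terminus-specific capture, HRP-4G8 detection, TMB read at 450 nm) and quantified against a pure Aβ peptide standard curve.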

SMILES	IC50 [1] [nM]	IC50 (Aβ40) [nM]
C[C@]1(c2cc(NC(=O)c3nn(C(F)F)cc3Cl)ccc2F)N=C(N)COCC1(F)F [Example 114, (R)-N-(3-(3-Amino-6,6-difluoro-5-methyl-2,5,6,7-tetrahydro-1,4-oxazepin-5-yl)-4-fluorophenyl)-4-chloro-1-(difluoromethyl)-1H-pyrazole-3-carboxamide]	9.68	4.9
C[C@]1(c2cc(NC(=O)c3nn(CC(F)(F)F)cc3Cl)ccc2F)N=C(N)COCC1(F)F [Example 106, (R)-N-(3-(3-Amino-6,6-difluoro-5-methyl-2,5,6,7-tetrahydro-1,4-oxazepin-5-yl)-4-fluorophenyl)-4-chloro-1-(2,2,2-trifluoroethyl)-1H-pyrazole-3-carboxamide]	2170	630
CC[C@]1(c2cc(NC(=O)c3cccnn3)ccc2F)N=C(N)COCC1(F)F [Example 81, (R)-N-(3-(3-Amino-5-ethyl-6,6-difluoro-2,5,6,7-tetrahydro-1,4-oxazepin-5-yl)-4-fluorophenyl)pyridazine-3-carboxamide]	421000	5680
CC[C@]1(c2cc(NC(=O)c3ncc(F)cc3Cl)ccc2F)N=C(N)COCC1(F)F [Example 84, (R)-N-(3-(3-Amino-5-ethyl-6,6-difluoro-2,5,6,7-tetrahydro-1,4-oxazepin-5-yl)-4-fluorophenyl)-3-chloro-5-fluoropicolinamide]	60.2	130
Cc1conc1C(=O)Nc1ccc(F)c([C@@]2(C)N=C(N)COCC2(F)F)c1 [Example 104, (R)-N(R)-N-(3-(3-Amino-6,6-difluoro-5-methyl-2,5,6,7-tetrahydro-1,4-oxazepin-5-yl)-4-fluorophenyl)-4-methylisoxazole-3-carboxamide]	95.6	160
CC[C@]1(c2cc(NC(=O)c3nn(C(F)F)cc3Cl)ccc2F)N=C(N)COCC1(F)F [Example 116, (R)-N-(3-(3-Amino-5-ethyl-6,6-difluoro-2,5,6,7-tetrahydro-1,4-oxazepin-5-yl)-4-fluorophenyl)-4-chloro-1-(difluoromethyl)-1H-pyrazole-3-carboxamide]	189	20
NC1=N[C@@]2(c3cccc(NC(=O)c4ccc(Cl)cn4)c3)C[C@H]2COC1 (racemic) [Example 3, 5-Chloro-pyridine-2-carboxylic acid [3-((1SR,7RS)-3-amino-5-oxa-2-aza-bicyclo[5.1.0]oct-2-en-1-yl)-phenyl]-amide]	245	34
C[C@]1(c2cc(NC(=O)c3ncccc3OCC(F)(F)F)ccc2F)N=C(N)COC[C@@H]1F [Example 112, N-(3-((5R,6R)-3-amino-6-fluoro-5-methyl-2,5,6,7-tetrahydro-1,4-oxazepin-5-yl)-4-fluorophenyl)-3-(2,2,2-trifluoroethoxy)picolinamide]	129	69
C[C@@]1(c2cc(NC(=O)C3(C(F)(F)F)CCC3)ccc2F)CCOCC(N)=N1 [Example 24, 1-Trifluoromethyl-cyclobutanecarboxylic acid [3-((S)-3-amino-5-methyl-2,5,6,7-tetrahydro-[1,4]oxazepin-5-yl)-4-fluoro-phenyl]-amide]	28	5870
CC[C@]1(c2cc(NC(=O)c3ncc(F)cc3C)ccc2F)N=C(N)COCC1(F)F [Example 102, (R)-N-(3-(3-Amino-5-ethyl-6,6-difluoro-2,5,6,7-tetrahydro-1,4-oxazepin-5-yl)-4-fluorophenyl)-5-fluoro-3-methylpicolinamide]	2200	33

Now from value to compound:

IC50 [1] [nM]	IC50 (Aβ40) [nM]	SMILES
12400	1500	C[C@]1(c2cc(NC(=O)c3cnc(OCCF)cn3)ccc2F)N=C(N)COCC1(F)F [Example 71, (R)-N-(3-(3-Amino-6,6-difluoro-5-methyl-2,5,6,7-tetrahydro-1,4-oxazepin-5-yl)-4-fluorophenyl)-5-(2-fluoroethoxy)pyrazine-2-carboxamide formate]
120	22	CC1(C)C[C@@](C)(c2cc(NC(=O)c3ccc(OCC(F)(F)F)cn3)ccc2F)N=C(N)CO1 [Example 18, 5-(2,2,2-Trifluoro-ethoxy)-pyridine-2-carboxylic acid [3-((S)-3-amino-5,7,7-trimethyl-2,5,6,7-tetrahydro-[1,4]oxazepin-5-yl)-4-fluoro-phenyl]-amide]
88	1	C[C@]1(c2cc(NC(=O)c3ccc(OC(F)F)cn3)ccc2F)N=C(N)COCC1(F)F [Example 48, (R)-N-(3-(3-amino-6,6-difluoro-5-methyl-2,5,6,7-tetrahydro-1,4-oxazepin-5-yl)-4-fluorophenyl)-5-(difluoromethoxy)picolinamide formate]
172	5.2	C[C@]1(c2cc(NC(=O)c3ccc(OCF)cn3)ccc2F)N=C(N)COCC1(F)F [Example 70, (R)-N-(3-(3-Amino-6,6-difluoro-5-methyl-2,5,6,7-tetrahydro-1,4-oxazepin-5-yl)-4-fluorophenyl)-5-(fluoromethoxy)picolinamide formate]
1	0.2	C[C@]1(c2cc(NC(=O)c3ccc(Cl)cn3)ccc2F)N=C(N)COC[C@@H]1F [Example 61, N-(3-((5R,6R)-3-amino-6-fluoro-5-methyl-2,5,6,7-tetrahydro-1,4-oxazepin-5-yl)-4-fluorophenyl)-5-chloropicolinamide]
2	2.1	CC1(C)C[C@@](C)(c2cc(NC(=O)c3ccc(OC(F)F)cn3)ccc2F)N=C(N)CO1 [Example 11, 5-Difluoromethoxy-pyridine-2-carboxylic acid [3-((S)-3-amino-5,7,7-trimethyl-2,5,6,7-tetrahydro-[1,4]oxazepin-5-yl)-4-fluoro-phenyl]-amide]
120	49	C[C@@]1(c2cc(NC(=O)c3ncc(C(F)(F)F)cc3Cl)ccc2F)COCCC(N)=N1 [Example 52, 3-Chloro-5-trifluoromethyl-pyridine-2-carboxylic acid [3-((R)-5-amino-3-methyl-2,3,6,7-tetrahydro-[1,4]oxazepin-3-yl)-4-fluoro-phenyl]-amide]
120	9	C[C@@]1(c2cc(NC(=O)c3ccc(OCC(F)(F)F)cn3)ccc2F)CCOCC(N)=N1 [Example 12, 5-(2,2,2-Trifluoro-ethoxy)-pyridine-2-carboxylic acid [3-((S)-3-amino-5-methyl-2,5,6,7-tetrahydro-[1,4]oxazepin-5-yl)-4-fluoro-phenyl]-amide]
71	160	CC1(C)OCC[C@@](C)(c2cc(NC(=O)c3ccc(F)cn3)ccc2F)N=C1N [Example 50, 5-Fluoro-pyridine-2-carboxylic acid [3-((S)-3-amino-2,2,5-trimethyl-2,5,6,7-tetrahydro-[1,4]oxazepin-5-yl)-4-fluoro-phenyl]-amide]
89.8	410	CC[C@]1(c2cc(NC(=O)c3ccccn3)ccc2F)N=C(N)COCC1(F)F [Example 75, (R)-N-(3-(3-amino-5-ethyl-6,6-difluoro-2,5,6,7-tetrahydro-1,4-oxazepin-5-yl)-4-fluorophenyl)picolinamide]
1.6	1.1	CC1(C)C[C@@](C)(c2cc(NC(=O)c3ccc(Cl)cn3)ccc2F)N=C(N)CO1 [Example 10, 5-Chloro-pyridine-2-carboxylic acid [3-((S)-3-amino-5,7,7-trimethyl-2,5,6,7-tetrahydro-[1,4]oxazepin-5-yl)-4-fluoro-phenyl]-amide]
91	0.3	C[C@]1(c2cc(NC(=O)c3ccc(C#N)cn3)ccc2F)N=C(N)COC[C@@H]1F [Example 63, N-(3-((5R,6R)-3-amino-6-fluoro-5-methyl-2,5,6,7-tetrahydro-1,4-oxazepin-5-yl)-4-fluorophenyl)-5-cyanopicolinamide]
1110	12	C[C@]1(c2cc(NC(=O)c3cnc(C(F)(F)F)cn3)ccc2F)N=C(N)COCC1(F)F [Example 101, (R)-N-(3-(3-Amino-6,6-difluoro-5-methyl-2,5,6,7-tetrahydro-1,4-oxazepin-5-yl)-4-fluorophenyl)-5-(trifluoromethyl)pyrazine-2-carboxamide formate]
131	39	Cc1ocnc1C(=O)Nc1ccc(F)c([C@@]2(C)N=C(N)COCC2(F)F)c1 [Example 98, (R)-N-(3-(3-Amino-6,6-difluoro-5-methyl-2,5,6,7-tetrahydro-1,4-oxazepin-5-yl)-4-fluorophenyl)-5-methyloxazole-4-carboxamide]
8.4	38	C[C@]1(c2cc(NC(=O)c3ncccc3Cl)ccc2F)N=C(N)COCC1(F)F [Example 36, (R)-N-(3-(3-amino-6,6-difluoro-5-methyl-2,5,6,7-tetrahydro-1,4-oxazepin-5-yl)-4-fluorophenyl)-3-chloropicolinamide formate]
